From US20250242064A1, “CXCR4-TARGETING COMPOUNDS, AND METHODS OF MAKING AND USING THE SAME” (PROVINCIAL HEALTH SERVICES AUTHORITY, priority 2022, published 2025)
Like-named read-outs stand apart in the source and are kept apart here. Where a SMILES comes first, the peptide text is derived from it. Bridges are numbered along the chain shown (N, C = ends). Side-chain parts run from the residue outwards. [ ]: non-standard residue; d: D form. The star is where a group is joined. DOTA = O=C(O)CN1CCN(CC(=O)O)CCN(CC(=O)*)CCN(CC(=O)O)CC1; Butanoyl(4-(4-MeO-phenyl)) = COc1ccc(CCCC(=O)*)cc1; 2Nal = N[C@@H](Cc1ccc2ccccc2c1)C(=O)O; Lys(iPr) = CC(C)NCCCC[C@H](N)C(=O)O; Cya = N[C@@H](CS(=O)(=O)O)C(=O)O

Assays:
CXCR4 [1] = target: T1, CXCR4 (Homo sapiens, UniProt P61073); experiment: Competitive binding assay, [125I]SDF-1α displacement on CHO:CXCR4 cells; set-up: expressed in transfected cells; host or cells: CHO:CXCR4 cells; conditions: [125I]SDF-1α 0.01 nM, 1 h at 27° C., read-out: IC50 (nM), binding affinity for hCXCR4
Protocol: CHO:CXCR4 cells were seeded at a density of 1×10^5 cells/well in 24-well poly-D-lysine coated plates (Corning BioCoat) and incubated with [^125I]SDF-1α (0.01 nM, PerkinElmer) and competing nonradioactive ligands ([…]). The cells, radioligand, and competing peptides were incubated for 1 h at 27° C. with moderate shaking. Following the incubation period, the supernatant was aspirated, followed by three washes with 1 mL of ice-cold PBS. Cells were harvested with 200 μL of trypsin and counted on a y counter. Data were plotted in GraphPad Prism 7 to determine IC50 values (GraphPad Software, Inc., La Jolla, CA). The values are reported as mean±standard deviation.
Target sequence in this assay (P61073 whole entry): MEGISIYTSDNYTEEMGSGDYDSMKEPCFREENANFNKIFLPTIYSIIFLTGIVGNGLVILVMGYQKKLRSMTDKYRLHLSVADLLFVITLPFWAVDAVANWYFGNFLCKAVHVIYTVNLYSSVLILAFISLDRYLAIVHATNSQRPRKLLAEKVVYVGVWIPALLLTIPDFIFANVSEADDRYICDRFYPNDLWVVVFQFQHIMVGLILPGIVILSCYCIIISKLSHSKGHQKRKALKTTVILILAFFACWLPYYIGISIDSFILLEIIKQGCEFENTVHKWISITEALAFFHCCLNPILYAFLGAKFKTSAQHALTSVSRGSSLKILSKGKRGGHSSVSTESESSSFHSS

[2] = tested on: non-Hodgkin lymphoma, renal cell carcinoma, lung cancer, colorectal cancer, and breast cancer xenograft models; conditions: reported; cited from earlier work
[3] = tested on: small cell lung cancer patients; conditions: reported; cited from earlier work
CXCR4 [4] = target: T1, CXCR4; conditions: reported; read-out: IC50, block of SDF-1a binding to CXCR4; cited from earlier work
Target sequence in this assay (P61073 whole entry, species assumed): as the sequence (P61073 whole entry) above

| Molecule | IC50 (CXCR4 [1]) [nM] | inhibition of growth of xenograft models [2] | treatment efficacy with carboplatin/etoposide chemotherapy [3] | IC50 (CXCR4 [4]) [nM] |
| --- | --- | --- | --- | --- |
| COc1ccc(CCCC(=O)NCCCC[C@H](NC(=O)[C@H](CCCCNC(C)C)NC(=O)[C@H]2CCC(=O)N[C@@H](CCCCNC(=O)[C@H](CS(=O)(=O)O)NC(=O)CN3CCN(CC(=O)O)CCN(CC(=O)O)CCN(CC(=O)O)CC3)C(=O)N[C@@H](Cc3ccc(O)cc3)C(=O)N[C@@H](CCCCNC(C)C)C(=O)N[C@H](CCCNC(=N)N)C(=O)N[C@@H](Cc3ccc4ccccc4c3)C(=O)N[C@H](C)C(=O)N2)C(N)=O)cc1 [BL34L8] (K([Cya-DOTA])Y[Lys(iPr)][dR][2Nal][dA][dE][Lys(iPr)]K(Butanoyl(4-(4-MeO-phenyl)))-NH2; lactam N-7) | > 100 | – | – | – |
| cyclo[Phe-Tyr-Lys(iPr)-D-Arg-2-Nal-Gly-D-Glu]-Lys(iPr)-NH2 [LY2510924] | – | able to inhibit growth | failed to improve treatment efficacy | 0.079 |
